Measurements published in article PMC4718634, “Murine GPRC6A Mediates Cellular Responses to L-Amino Acids, but Not Osteocalcin Variants” (PLoS ONE, 2016).

Key:
[1] = tested on: GLUTag cells; conditions: endogenous; ref [17] (supplement list); cited from earlier work
Description: (§1) Supplement pone.0146846.s004.docx, table 1 | column: Functional assay

[2] = tested on: non-tetracycline induced or parental HEK293 cells; experiment: Inositol phosphate accumulation, parental or non-tetracycline-induced HEK293 cells; conditions: G protein-transfected parental HEK293 or non-tetracycline-induced cells; Fig 1B
[3] = tested on: MIN6 or βTC6 cells; experiment: Insulin release, MIN6 or βTC6 cells (summary table); format: cell-based, murine; conditions: S1 Table
Procedure: MIN6 or βTC-6 cells were seeded in 24-well plates at 170,000 cells per well in DMEM (containing 4.5g/L glucose, 10 mM HEPES, 100 U/ml penicillin, 100 μg/ml streptomycin and 15% de-complemented FBS) and incubated at 37°C / 5% CO2 for 72 h. Cells were then washed with 500 μl PBS and incubated in 500 μl deprivation media (DMEM with zero glucose, 10 mM HEPES, 1 mM Na-pyruvate, 100 U/ml penicillin, 100 μg/ml streptomycin, 15% de-complemented FBS) for 2 h at 37°C. Media was aspirated and after washing with 500 μl PBS, cells were treated with 250 μl of Krebs buffer (250 mM NaCl, 5.9 mM KCl, 1.2 mM MgCl2, 1.3 mM CaCl2, 25 mM HEPES, 0.1% BSA (w/v), and 2 mM or 16.7 mM glucose; pH 7.4) in the presence or absence of test compound. After incubation for 2 h at 37°C, the assay was terminated by placing the plates on ice and supernatants were transferred to a 96-well plate in preparation for insulin ELISA (Alpco) following manufacturer’s instructions. The cell monolayer was washed twice with 500 μl of PBS and then lysed using 250 μl of 1 N NaOH prior to protein measurement by the method of Bradford (1976).

[4] = tested on: immortalised cell lines (e.g. pancreatic β-cells); conditions: ref [12], cited from earlier work
Description: (§2) Additional interest in GPRC6A has emerged due to several studies reporting that it mediates the metabolic and endocrine effects of the de-carboxylated form of the osteoblast-derived peptide, osteocalcin (OCN). […] By examining cell signalling events downstream of recombinantly expressed mouse GPRC6A and phenotypic assays in cell lines endogenously expressing the Gprc6a transcript, we confirmed that GPRC6A is a receptor for basic L-amino acids, but were unable to detect any effect of OCN variants, irrespective of peptide species or source. GPRC6A has emerged in recent years as an interesting target due to its putative role in med ...

[5] = tested on: mice; conditions: [21], cited from earlier work
Description: as §2

[6] = tested on: GPRC6A-expressing cell lines or mouse pancreatic islets; conditions: ref [31]; cited from earlier work
Description: (§3) The involvement of GPRC6A has been shown by transfection of receptor-specific siRNA, receptor blockade with a polyclonal antibody and, in the case of the islets, using tissue from KO mice.

[7] = tested on: GPRC6A; conditions: GPRC6A-expressing cell lines or mouse pancreatic islets; ref [29]; cited from earlier work
Description: as §3

[8] = tested on: pancreatic islets; conditions: GPRC6A-dependent; ref [31]; cited from earlier work
Description: (§4) Given the range of OCN variants profiled, we propose that species and/or carboxylation status is unlikely to be a cause of the lack of activity in our assays. Other potential explanations are that the species of GPRC6A is critical or that HEK293 cells lack the necessary scaffolding and/or signalling proteins found in cells endogenously expressing GPRC6A. Unfortunately, human GPRC6A was not expressed at the cell surface in our cells, precluding a study of its pharmacology. However, we identified a range of immortalised murine entero-endocrine and pancreatic β-cell lines that express Gprc6a mRNA ...

[9] = tested on: βTC-6 cells; conditions: GPRC6A-dependent; ref [12]; cited from earlier work
Description: as §4

[10] = tested on: 22RV1 / PC-3; conditions: endogenous; ref [9] (supplement list); cited from earlier work
Description: as §1

[11] = tested on: 22RV1; conditions: endogenous, cited from earlier work
Description: as §1

[12] = tested on: 3T3-L1 adipocytes; conditions: endogenous; ref [16] (supplement list); cited from earlier work
Description: as §1

[13] = tested on: GPRC6A; conditions: ref [6] (supplement list); cited from earlier work
Description: as §1

[14] = tested on: MA-10 Leyding cells; conditions: endogenous; ref [15] (supplement list); cited from earlier work
Description: as §1

[15] = tested on: MC3T3-E1; conditions: endogenous; ref cell of this line empty; cited from earlier work
Description: as §1

[16] = tested on: TC6; conditions: endogenous; ref [11] (supplement list); cited from earlier work
Description: as §1

[17] = tested on: TM3 Leydig cells; conditions: endogenous; ref [12] (supplement list); cited from earlier work
Description: as §1

[18] = tested on: Unknown species GPRC6A; conditions: ref [11] (supplement list); cited from earlier work
Description: as §1

[19] = tested on: hC6A; conditions: ref [9] (supplement list); cited from earlier work
Description: as §1

With `NCCC[C@H](N)C(=O)O` [L-ornithine] as the compound, how does the GLP-1 secretion response [1] read?
Its GLP-1 secretion response is “response”.

What about the “inositol phosphate response in non-expressing cells” value [2] of the same compound?
The value was “absent in non-tetracycline induced or parental HEK293 cells”.

Which “Insulin release (summary)” value [3] does the source give for “OCN: osteoblast-derived peptide, osteocalcin; variant not specified at the place (YLYQWLGAPVPYPDPLEPRREVCELNPDCDELADHIGFQEAYRRFYGPV; UniProt P02818 52-100, looked up)” here?
The value was “Insulin release – response to L-aa. No response to OCN”.

And the insulin release ([4]; blocked by siRNA targeting Gprc6a, [22])?
Its insulin release is “OCN-mediated insulin and glucagon-like peptide (GLP)-1 release”.

And the “insulin secretion in vitro and ex vivo” value ([4]; [20], [21])?
Its value is “promoting insulin secretion in vitro and ex vivo”.

And the “β-cell proliferation, insulin release, insulin sensitivity, energy expenditure, testosterone synthesis” value ([5]; mice, ref [20])?
The value was “increase pancreatic β-cell proliferation, insulin release from pancreatic islets, insulin sensitivity and energy expenditure and testosterone synthesis in the gonads in mice”.

And the “β-cell proliferation, insulin sensitivity, energy expenditure” value ([5]; ref [12], [20])?
Its value is “can increase pancreatic β-cell proliferation, insulin sensitivity and energy expenditure in vivo”.

What about the β-cell proliferation [6] of the same compound?
Its β-cell proliferation is “increased β-cell proliferation”.

What about the intracellular calcium mobilisation [7] of the same compound?
The intracellular calcium mobilisation was “cause intracellular calcium mobilisation”.

What about the insulin secretion [8] of the same compound?
The insulin secretion was “increase insulin secretion from pancreatic islets”.

And the ERK1/2 phosphorylation [9]?
The ERK1/2 phosphorylation was “engender ERK1/2 phosphorylation”.

And the “PSA, Runx2 expression response” value [10]?
The value was “pERK1/2 – response to Ca^2+, ZnCl2, OCN, Arginine, Testosterone-BSA Proliferation – response to Ca^2+, OCN PSA, Runx2 expression – response to OCN, Arg, R1881 Chemotaxis (22RV1) – response to Ca^2+, OCN”.

What about the Proliferation response [10] of the same compound?
The Proliferation response was “pERK1/2 – response to Ca^2+, ZnCl2, OCN, Arginine, Testosterone-BSA Proliferation – response to Ca^2+, OCN PSA, Runx2 expression – response to OCN, Arg, R1881 Chemotaxis (22RV1) – response to Ca^2+, OCN”.

And the pERK1/2 response [10]?
Its pERK1/2 response is “pERK1/2 – response to Ca^2+, ZnCl2, OCN, Arginine, Testosterone-BSA Proliferation – response to Ca^2+, OCN PSA, Runx2 expression – response to OCN, Arg, R1881 Chemotaxis (22RV1) – response to Ca^2+, OCN”.

What about the “Chemotaxis (22RV1) response” value ([11]; ref [9] (supplement list)) of the same compound?
Its value is “pERK1/2 – response to Ca^2+, ZnCl2, OCN, Arginine, Testosterone-BSA Proliferation – response to Ca^2+, OCN PSA, Runx2 expression – response to OCN, Arg, R1881 Chemotaxis (22RV1) – response to Ca^2+, OCN”.

What about the Proliferation response ([11]; ref [10] (supplement list)) of the same compound?
The Proliferation response was “pERK1/2 – response to Testosterone-BSA, Proliferation – response to Ca^2+, OCN, Testosterone-BSA”.

And the “Adiponectin, PPARγ expression response” value [12]?
Its value is “cAMP – response to OCN pERK1/2 – response to OCN pCREB – response to OCN Adiponectin, PPARγ expression – response to OCN”.

What about the cAMP response [12] of the same compound?
Its cAMP response is “cAMP – response to OCN pERK1/2 – response to OCN pCREB – response to OCN Adiponectin, PPARγ expression – response to OCN”.

And the pCREB response [12]?
The pCREB response was “cAMP – response to OCN pERK1/2 – response to OCN pCREB – response to OCN Adiponectin, PPARγ expression – response to OCN”.

And the pERK1/2 response [12]?
The pERK1/2 response was “cAMP – response to OCN pERK1/2 – response to OCN pCREB – response to OCN Adiponectin, PPARγ expression – response to OCN”.

And the SRE-reporter gene response [13]?
Its SRE-reporter gene response is “pERK1/2 – response to Ca^2+, Mg^2+, Gd^3+, Al^3+, NPS R568 SRE-reporter gene – response to CaCl2, SrCl2, MgCl2, GdCl3 and OCN”.

And the “Ca^2+i response” value [14]?
The value was “response”.

What about the “Release of 25-OH-Vit D or Testosterone” value [14] of the same compound?
Its value is “response”.

And the cAMP response [14]?
The cAMP response was “no response”.

What about the SRE-reporter gene response [15] of the same compound?
Its SRE-reporter gene response is “SRE-reporter gene – response to OCN”.

What about the “pERK1/2, pPKD1 response” value [16] of the same compound?
The value was “pERK1/2, pPKD1 – response to OCN, L-Arg”.

And the “Ca2+i response” value [17]?
The value was “negative”.

What about the cAMP response [17] of the same compound?
Its cAMP response is “response”.

What about the pCREB response [17] of the same compound?
Its pCREB response is “response”.

What about the pERK1/2 response [17] of the same compound?
Its pERK1/2 response is “negative”.

And the pERK1/2 response [18]?
The pERK1/2 response was “pERK1/2 - response to Ca^2+, L-Arg, OCN”.

And the pERK1/2 response [19]?
The pERK1/2 response was “pERK1/2 – response to Ca^2+, ZnCl2, OCN, Arginine, Testosterone-BSA”.
